Patent publication US20070049564A1 (Wyeth, priority 2005, published 2007)
In brackets after ≈: the same amount, converted by molar mass. Where two headings read alike, the source gives them in different places.

Columns and labels:
[1] = tested on: E. coli GC 2235; test: MIC, broth microdilution; conditions: Escherichia coli
[2] = tested on: E. coli GC 2203; test: MIC, broth microdilution; conditions: Escherichia coli
[3] = tested on: P. aeruginosa GC 2214; test: MIC, broth microdilution; conditions: Pseudomonas aeruginosa
[4] = tested on: E. coli GC 4560; test: MIC, broth microdilution; conditions: Escherichia coli
[5] = tested on: Staph.; test: Range of MIC for Staph. strains, including MRSA; conditions: Staphylococcus aureus
[6] = tested on: E. coli GC 2233; test: MIC, broth microdilution; conditions: Escherichia coli
[7] = tested on: S. aureus GC 6467; test: MIC, broth microdilution; conditions: Staphylococcus aureus
[8] = tested on: E. coli GC 4559; test: MIC, broth microdilution; conditions: Escherichia coli
[9] = tested on: E. coli GC 1073; test: MIC, broth microdilution; conditions: Escherichia coli
[10] = tested on: S. aureus GC 6469; test: MIC, broth microdilution; conditions: Staphylococcus aureus
[11] = tested on: S. agalactiae GC 4564; test: MIC, broth microdilution; conditions: Streptococcus agalactiae
[12] = tested on: E. coli; test: Range of MIC for E. coli strains; conditions: Escherichia coli
[13] = tested on: E. coli GC 2271; test: MIC, broth microdilution; conditions: Escherichia coli
[14] = tested on: E. faecalis GC 4555; test: MIC, broth microdilution; conditions: Enterococcus faecalis
[15] = tested on: S. aureus GC 4536; test: MIC, broth microdilution; conditions: Staphylococcus aureus
[16] = tested on: E. coli GC 6465; test: MIC, broth microdilution; conditions: Escherichia coli
[17] = tested on: E. faecalis GC 2242; test: MIC, broth microdilution; conditions: Enterococcus faecalis
Protocol: Antimicrobial susceptibility testing. The in vitro activities of the antibiotics are determined by the broth microdilution method as recommended by the National Committee for Clinical Laboratory Standards (NCCLS) (1). Mueller-Hinton II broth (MHBII)(BBL Cockeysville, Md.) is the medium employed in the testing procedures. Microtiter plates containing serial dilutions of each antimicrobial agent are inoculated with each organism to yield the appropriate density (10^5 CFU/ml) in a 100 μl final volume. The plates are incubated for 18-22 hours at 35° C. in ambient air.
Representative compounds were first incubated in mouse serum for an hour prior to the in vitro testing against a panel of selected gram-positive and gram-negative bacteria strains. All compounds were also pre-incubated in water for an hour prior to testing as control. Representative compounds of Formula I were incubated in human serum prior to MIC determination.

[18] = tested on: E. faecalis GC 2265; test: MIC, broth microdilution; conditions: Enterococcus faecalis
[19] = tested on: E. coli GC 2236; test: MIC, broth microdilution; conditions: Escherichia coli
[20] = tested on: E. coli GC 2270; test: MIC, broth microdilution; conditions: Escherichia coli

In the case of `CCC(C)(C)C(=O)OCOC(=O)N(CC(=O)Nc1cc(N(C)C)c2c(c1O)C(=O)C1=C(O)[C@]3(O)C(=O)C(C(N)=O)=C(O)[C@@H](N(C)C)[C@@H]3C[C@@H]1C2)C(C)(C)C` [Example 44, ({[(2-{[(5aR,6aS,7S,10aS)-9-(aminocarbonyl)-4,7-bis(dimethylamino)-1,8,10a,11-tetrahydroxy-10,12-dioxo-5,5a,6,6a,7,10,10a,12-octahydrotetracen-2-yl]amino}-2-oxoethyl)(tert-butyl)amino]carbonyl}oxy)methyl 2,2-dimethylbutanoate], the MIC ([1]; GC2235, read-out: MINIMAL INHIBITORY CONCENTRATION MIC, pre-incubated in Human Serum) was > 64 µg/mL, the MIC ([1]; GC2235, read-out: MINIMAL INHIBITORY CONCENTRATION MIC, pre-incubated in Mouse Serum) was 2 µg/mL (≈ 2.64 µM) and the MIC ([1]; GC2235, read-out: MINIMAL INHIBITORY CONCENTRATION MIC, pre-incubated in Water) was > 64 µg/mL. The MIC ([2]; GC2203, read-out: MINIMAL INHIBITORY CONCENTRATION MIC, pre-incubated in Human Serum) was > 64 µg/mL, the MIC ([2]; GC2203, read-out: MINIMAL INHIBITORY CONCENTRATION MIC, pre-incubated in Mouse Serum) was 2 µg/mL (≈ 2.64 µM) and the MIC ([2]; GC2203, read-out: MINIMAL INHIBITORY CONCENTRATION MIC, pre-incubated in Water) was > 64 µg/mL. For the same compound, the MIC ([3]; GC2214, read-out: MINIMAL INHIBITORY CONCENTRATION MIC, pre-incubated in Human Serum) was > 64 µg/mL, the MIC ([3]; GC2214, read-out: MINIMAL INHIBITORY CONCENTRATION MIC, pre-incubated in Mouse Serum) was > 64 µg/mL and the MIC ([3]; GC2214, read-out: MINIMAL INHIBITORY CONCENTRATION MIC, pre-incubated in Water) was > 64 µg/mL. For the same compound, the MIC ([4]; GC4560, read-out: MINIMAL INHIBITORY CONCENTRATION MIC, pre-incubated in Human Serum) was 4 µg/mL (≈ 5.28 µM), the MIC ([4]; GC4560, read-out: MINIMAL INHIBITORY CONCENTRATION MIC, pre-incubated in Mouse Serum) was 2 µg/mL (≈ 2.64 µM) and the MIC ([4]; GC4560, read-out: MINIMAL INHIBITORY CONCENTRATION MIC, pre-incubated in Water) was 4 µg/mL (≈ 5.28 µM). It also gave an MIC ([5]; MRSA, read-out: Range of MIC, Staph (Mouse Serum)) of 2 µg/mL (≈ 2.64 µM), an MIC ([5]; MRSA, read-out: Range of MIC, Staph (Water)) of 2 to 4 µg/mL (≈ 2.64 to 5.28 µM) and an MIC ([5]; read-out: Minimum inhibitory concentration (MIC), Staph (Human Serum)) of 2 to 4 µg/mL (≈ 2.64 to 5.28 µM). For the same compound, the MIC ([5]; read-out: Minimum inhibitory concentration (MIC), Staph (Water)) was 2 to 4 µg/mL (≈ 2.64 to 5.28 µM), the MIC ([6]; GC2233, read-out: MINIMAL INHIBITORY CONCENTRATION MIC, pre-incubated in Human Serum) was > 64 µg/mL and the MIC ([6]; GC2233, read-out: MINIMAL INHIBITORY CONCENTRATION MIC, pre-incubated in Mouse Serum) was 2 µg/mL (≈ 2.64 µM). For the same compound, the MIC ([6]; GC2233, read-out: MINIMAL INHIBITORY CONCENTRATION MIC, pre-incubated in Water) was > 64 µg/mL, the MIC ([7]; GC6467, read-out: MINIMAL INHIBITORY CONCENTRATION MIC, pre-incubated in Human Serum) was 2 µg/mL (≈ 2.64 µM) and the MIC ([7]; GC6467, read-out: MINIMAL INHIBITORY CONCENTRATION MIC, pre-incubated in Mouse Serum) was 2 µg/mL (≈ 2.64 µM). For the same compound, the MIC ([7]; GC6467, read-out: MINIMAL INHIBITORY CONCENTRATION MIC, pre-incubated in Water) was 4 µg/mL (≈ 5.28 µM), the MIC ([8]; GC4559, read-out: MINIMAL INHIBITORY CONCENTRATION MIC, pre-incubated in Human Serum) was > 64 µg/mL and the MIC ([8]; GC4559, read-out: MINIMAL INHIBITORY CONCENTRATION MIC, pre-incubated in Mouse Serum) was 4 µg/mL (≈ 5.28 µM). For the same compound, the MIC ([8]; GC4559, read-out: MINIMAL INHIBITORY CONCENTRATION MIC, pre-incubated in Water) was > 64 µg/mL, the MIC ([9]; GC1073, read-out: MINIMAL INHIBITORY CONCENTRATION MIC, pre-incubated in Human Serum) was > 64 µg/mL and the MIC ([9]; GC1073, read-out: MINIMAL INHIBITORY CONCENTRATION MIC, pre-incubated in Mouse Serum) was 4 µg/mL (≈ 5.28 µM). For the same compound, the MIC ([9]; GC1073, read-out: MINIMAL INHIBITORY CONCENTRATION MIC, pre-incubated in Water) was > 64 µg/mL, the MIC ([10]; GC6469, read-out: MINIMAL INHIBITORY CONCENTRATION MIC, pre-incubated in Human Serum) was 2 µg/mL (≈ 2.64 µM) and the MIC ([10]; GC6469, read-out: MINIMAL INHIBITORY CONCENTRATION MIC, pre-incubated in Mouse Serum) was 2 µg/mL (≈ 2.64 µM). For the same compound, the MIC ([10]; GC6469, read-out: MINIMAL INHIBITORY CONCENTRATION MIC, pre-incubated in Water) was 4 µg/mL (≈ 5.28 µM), the MIC ([11]; GC4564, read-out: MINIMAL INHIBITORY CONCENTRATION MIC, pre-incubated in Human Serum) was 4 µg/mL (≈ 5.28 µM) and the MIC ([11]; GC4564, read-out: MINIMAL INHIBITORY CONCENTRATION MIC, pre-incubated in Mouse Serum) was 1 µg/mL (≈ 1.32 µM). The MIC ([11]; GC4564, read-out: MINIMAL INHIBITORY CONCENTRATION MIC, pre-incubated in Water) was 4 µg/mL (≈ 5.28 µM), the MIC ([12]; 20 h, read-out: Range of MIC, E. coli (Mouse Serum)) was 2 to 8 µg/mL (≈ 2.64 to 10.6 µM) and the MIC ([12]; read-out: Minimum inhibitory concentration (MIC), E. coli (Human Serum)) was > 64 µg/mL. The MIC ([12]; read-out: Minimum inhibitory concentration (MIC), E. coli (water)) was > 64 µg/mL, the MIC ([12]; read-out: Range of MIC, E. coli (Water)) was > 64 µg/mL and the MIC ([13]; GC2271, read-out: MINIMAL INHIBITORY CONCENTRATION MIC, pre-incubated in Human Serum) was > 64 µg/mL. For the same compound, the MIC ([13]; GC2271, read-out: MINIMAL INHIBITORY CONCENTRATION MIC, pre-incubated in Mouse Serum) was 2 µg/mL (≈ 2.64 µM), the MIC ([13]; GC2271, read-out: MINIMAL INHIBITORY CONCENTRATION MIC, pre-incubated in Water) was > 64 µg/mL and the MIC ([14]; GC4555, read-out: MINIMAL INHIBITORY CONCENTRATION MIC, pre-incubated in Human Serum) was 4 µg/mL (≈ 5.28 µM). The MIC ([14]; GC4555, read-out: MINIMAL INHIBITORY CONCENTRATION MIC, pre-incubated in Mouse Serum) was 2 µg/mL (≈ 2.64 µM), the MIC ([14]; GC4555, read-out: MINIMAL INHIBITORY CONCENTRATION MIC, pre-incubated in Water) was 4 µg/mL (≈ 5.28 µM) and the MIC ([15]; GC4536, read-out: MINIMAL INHIBITORY CONCENTRATION MIC, pre-incubated in Human Serum) was 2 µg/mL (≈ 2.64 µM). For the same compound, the MIC ([15]; GC4536, read-out: MINIMAL INHIBITORY CONCENTRATION MIC, pre-incubated in Mouse Serum) was 2 µg/mL (≈ 2.64 µM), the MIC ([15]; GC4536, read-out: MINIMAL INHIBITORY CONCENTRATION MIC, pre-incubated in Water) was 4 µg/mL (≈ 5.28 µM) and the MIC ([16]; GC6465, read-out: MINIMAL INHIBITORY CONCENTRATION MIC, pre-incubated in Human Serum) was > 64 µg/mL. For the same compound, the MIC ([16]; GC6465, read-out: MINIMAL INHIBITORY CONCENTRATION MIC, pre-incubated in Mouse Serum) was 8 µg/mL (≈ 10.6 µM), the MIC ([16]; GC6465, read-out: MINIMAL INHIBITORY CONCENTRATION MIC, pre-incubated in Water) was > 64 µg/mL and the MIC ([17]; GC2242, read-out: MINIMAL INHIBITORY CONCENTRATION MIC, pre-incubated in Human Serum) was 4 µg/mL (≈ 5.28 µM). The MIC ([17]; GC2242, read-out: MINIMAL INHIBITORY CONCENTRATION MIC, pre-incubated in Mouse Serum) was 2 µg/mL (≈ 2.64 µM), the MIC ([17]; GC2242, read-out: MINIMAL INHIBITORY CONCENTRATION MIC, pre-incubated in Water) was 4 µg/mL (≈ 5.28 µM) and the MIC ([18]; GC2265, read-out: MINIMAL INHIBITORY CONCENTRATION MIC, pre-incubated in Human Serum) was 2 µg/mL (≈ 2.64 µM). For the same compound, the MIC ([18]; GC2265, read-out: MINIMAL INHIBITORY CONCENTRATION MIC, pre-incubated in Mouse Serum) was 2 µg/mL (≈ 2.64 µM), the MIC ([18]; GC2265, read-out: MINIMAL INHIBITORY CONCENTRATION MIC, pre-incubated in Water) was 4 µg/mL (≈ 5.28 µM) and the MIC ([19]; GC2236, read-out: MINIMAL INHIBITORY CONCENTRATION MIC, pre-incubated in Human Serum) was > 64 µg/mL. The MIC ([19]; GC2236, read-out: MINIMAL INHIBITORY CONCENTRATION MIC, pre-incubated in Mouse Serum) was 2 µg/mL (≈ 2.64 µM), the MIC ([19]; GC2236, read-out: MINIMAL INHIBITORY CONCENTRATION MIC, pre-incubated in Water) was > 64 µg/mL and the MIC ([20]; GC2270, read-out: MINIMAL INHIBITORY CONCENTRATION MIC, pre-incubated in Human Serum) was > 64 µg/mL. For the same compound, the MIC ([20]; GC2270, read-out: MINIMAL INHIBITORY CONCENTRATION MIC, pre-incubated in Mouse Serum) was 2 µg/mL (≈ 2.64 µM) and the MIC ([20]; GC2270, read-out: MINIMAL INHIBITORY CONCENTRATION MIC, pre-incubated in Water) was > 64 µg/mL.
